“Also recorded” adds a separate entry of the source.
Legend:
[1] = system: FOCM/TS metabolic profiles of individuals with ASD; assay: FDA model evaluation of clinical trial treatment data (Type II error and discriminant score shift); format: in vivo, children; conditions: for Post-treatment Type II Error: PDF of post-treatment discriminant scores with respect to H0, 12 weeks (BH4: average of 8 and 16 weeks); for change in Type II error / correction of metabolic abnormalities (in words): comparison among treatments; for Effect Size (95% CI): median paired pre-to-post-treatment change in discriminant score, CI by bootstrap, 10,000 replications; for Change in Type II Error: pre- to post-treatment, with respect to H0
Experimental: MeCbl+LDFA Treatment Data. Subcutaneously injected MeCbl (75 μg/kg, once every three days) in combination with oral LDFA (400 μg, twice per day) was given to children with autism in a 12-week open-label trial. Included children were aged 2 to 7 years and met the diagnostic criteria for autism as defined by the DSM-IV in addition to having a Childhood Autism Rating Scales score greater than 30. Boys and girls made up 82% and 18% of participants in this study, respectively. The IRB at the University of Arkansas for Medical Sciences approved the protocol for this study.
BH4 Treatment Data. A 16-week open-label trial investigated the effects of orally administered BH4 (20 mg/kg, once per day) in children aged 2 to 6 years old with a previous diagnosis of ASD that was confirmed at the time of evaluation with DSM-IV criteria. […] Study participants were 90% males. Approval for this study was given by the IRB at the University of Texas Health Science Center at Houston, Tex. FOCM/TS markers were measured at 8 and 16 weeks following the onset of treatment in this trial; to maintain consistency with the other trials where markers were measured after 12 weeks, the averages of the measurements taken at 8 and 16 weeks were used.
HDFA Treatment Data. A double-blind placebo-controlled trial of HDFA (2 mg/kg per day up to a maximum of 50 mg daily, given orally) was administered over 12 weeks to children between 3 and 14 years of age. ASD diagnoses were made using the Autism Diagnostic Observation Schedule and/or Autism Diagnostic Interview—Revised, or by agreement between physician, psychologist, and speech therapist, or by a physician's diagnosis according to the Diagnostic and Statistical Manual of Mental Disorders, Fifth Edition with later confirmation by the investigators. All children were required to have documented language impairment. 78% of the treatment group were male while 80% of the placebo group were male. The protocol was approved by the IRB at the University of Arkansas for Medical Sciences. All data for participants receiving a placebo in the current analysis were provided.
Biochemical Measurements. Concentrations and ratios of metabolites in the FOCM and TS pathways were measured in each of the above studies, with fifteen measurements appearing in all four data sets. Six of these measures were associated with DNA methylation: methionine, S-adenosylmethionine (SAM), S-adenosylhomocysteine (SAH), the SAM/SAH ratio (an indicator of DNA methylation capacity), homocysteine, and adenosine. The remaining nine measures were precursors of glutathione or markers of redox metabolism: total cysteine, glutamylcysteine (Glu-Cys), cysteinylglycine (Cys-Gly), total and free reduced glutathione (tGSH and fGSH, respectively), oxidized glutathione (GSSG), the ratios of total and free reduced glutathione to oxidized glutathione (tGSH/GSSG and fGSH/GSSG, respectively; these are indicators of intracellular oxidative stress), and percent oxidized glutathione (a derived measure calculated as 2GSSG/[GSH+2GSSG]).
Fisher Discriminant Analysis. Individuals of the IMAGE study were separated into ASD and TD cohorts using Fisher discriminant analysis (FDA). FDA used the data matrix X of size n×m as input, where n study participants are each defined by m biochemical measurements. Sample information for study participant i was contained in row vector xi (size 1×m) and that participant's value for measurement j is indicated by xi,j. The input matrix X were considered as two matrices XASD and XTD taken to represent the separate samples for the ASD and TD cohorts, respectively, with XASD composed of nASD samples and XTD having nTD samples. […]

[2] = system: ASD-related symptoms; conditions: cited from earlier work

Nc1nc(=O)c2c([nH]1)NCC(CNc1ccc(C(=O)N[C@@H](CCC(=O)O)C(=O)O)cc1)N2C=O (mixture of isomers) [HDFA, high-dose folinic acid]
Post-treatment Type II Error [1]: 49.5% | 95% CI for the effect size relative to zero (in words) ([1]; bootstrap 95% CI of median change in discriminant score): contained zero | change in Type II error / correction of metabolic abnormalities (in words) [1]: relatively small increase in Type II error | Effect Size (95% CI) [1]: 0.17 | Change in Type II Error [1]: +17.2%

Nc1nc(=O)c2c([nH]1)NCC(CNc1ccc(C(=O)N[C@@H](CCC(=O)O)C(=O)O)cc1)N2C=O (mixture of isomers) [folinic acid, Folinic acid]
outcome of treatment (cerebrospinal fluid, symptoms and behavior) ([2]; ASD): correct certain abnormalities of the cerebrospinal fluid and improve ASD-related symptoms and behavior

C[C@H](O)[C@H](O)[C@H]1CNc2nc(N)[nH]c(=O)c2N1 [BH4, tetrahydrobiopterin]
Post-treatment Type II Error [1]: 41.1% | Effect Size (95% CI) [1]: 0.73 | Change in Type II Error [1]: +40.8%

C/C1=C2/[N-][C@H]([C@H](CC(N)=O)[C@@]2(C)CCC(=O)NC[C@@H](C)OP(=O)([O-])O[C@H]2[C@@H](O)[C@@H](n3cnc4cc(C)c(C)cc43)O[C@@H]2CO)[C@]2(C)N=C(/C(C)=C3N=C(/C=C4N=C1[C@@H](CCC(N)=O)C\4(C)C)[C@@H](CCC(N)=O)[C@]\3(C)CC(N)=O)[C@@H](CCC(N)=O)[C@]2(C)CC(N)=O.[CH3-].[Co+3] [MeCbl, methylcobalamin]
outcome of open-label and double-blind placebo-controlled studies ([2]; children with ASD): improvement in metabolism and ASD-related symptoms

methylcobalamin (MeCbl) in combination with low-dose folinic acid (LDFA) [MeCbl + LDFA]
Post-treatment Type II Error [1]: 43.6% | change in Type II error / correction of metabolic abnormalities (in words) [1]: greatest correction in ASD-related metabolic abnormalities; also recorded: largest increase in Type II error | Effect Size (95% CI) [1]: 0.89 | Change in Type II Error [1]: +41.9%
